# In ChEMBL document CHEMBL1681651, “A broad spectrum anticancer nucleoside with selective toxicity against human colon cells in vitro” (2011):
# How the values were obtained:
# Format in all cases: functional
# [1] = system: HOP-92; assay: Growth inhibition of human HOP92 cells assessed as cell growth at 100 uM after 48 hrs by SRB assay; details: HOP-92, 48 h, read-out: Activity
# [2] = system: NCI-H460; assay: Growth inhibition of human NCI-H460 cells assessed as cell growth at 100 uM after 48 hrs by SRB assay; details: NCI-H460, 48 h, read-out: Activity
# [3] = system: UACC-62; assay: Growth inhibition of human UACC62 cells assessed as cell growth at 1 mM after 48 hrs by SRB assay; details: UACC-62, 48 h, read-out: Activity
# [4] = system: A549; assay: Growth inhibition of human A549 cells assessed as cell growth at 1 uM after 48 hrs by SRB assay; details: A549, 48 h, read-out: Activity
# [5] = system: SK-MEL-2; assay: Growth inhibition of human SK-MEL-2 cells assessed as cell growth at 1 uM after 48 hrs by SRB assay; details: SK-MEL-2, 48 h, read-out: Activity
# [6] = system: UACC-257; assay: Growth inhibition of human UACC257 cells after 48 hrs by […] growth inhibition assay; details: UACC-257, 48 h
# [7] = system: HOP-92; assay: Growth inhibition of human HOP92 cells assessed as cell growth at 0.1 uM after 48 hrs by SRB assay; details: HOP-92, 48 h, read-out: Activity
# [8] = system: SF-295; assay: Growth inhibition of human SF295 cells assessed as cell growth at 0.1 uM after 48 hrs by SRB assay; details: SF-295, 48 h, read-out: Activity
# [9] = system: COLO 205; assay: Growth inhibition of human COLO205 cells after 48 hrs by […] growth inhibition assay; details: COLO 205, 48 h
# [10] = system: DU-145; assay: Growth inhibition of human DU145 cells assessed as cell growth at 1 uM after 48 hrs by SRB assay; details: DU-145, 48 h, read-out: Activity
# [11] = system: HCT-15; assay: Growth inhibition of human HCT15 cells assessed as cell growth at 1 mM after 48 hrs by SRB assay; details: HCT-15, 48 h, read-out: Activity
# [12] = system: IGROV-1; assay: Growth inhibition of human IGROV1 cells assessed as cell growth at 10 uM after 48 hrs by SRB assay; details: IGROV-1, 48 h, read-out: Activity
# [13] = system: NCI/ADR-RES; assay: Growth inhibition of human NCI/ADR-RES cells assessed as cell growth at 10 uM after 48 hrs by SRB assay; details: read-out: Activity
# [14] = system: LOX IMVI; assay: Growth inhibition of human LOXIMVI cells after 48 hrs by […] growth inhibition assay
# [15] = system: HCT-116; assay: Growth inhibition of human HCT116 cells assessed as cell growth at 100 uM after 48 hrs by SRB assay; details: HCT-116, 48 h, read-out: Activity
# [16] = system: NCI-H23; assay: Growth inhibition of human NCI-H23 cells assessed as cell growth at 1 mM after 48 hrs by SRB assay; details: NCI-H23, 48 h, read-out: Activity
# [17] = system: LOX IMVI; assay: Growth inhibition of human LOXIMVI cells assessed as cell growth at 0.1 uM after 48 hrs by SRB assay; details: read-out: Activity
# [18] = system: 786-0; assay: Growth inhibition of human 786-0 cells assessed as cell growth at 1 uM after 48 hrs by SRB assay; details: 786-0, 48 h, read-out: Activity
# [19] = Growth inhibition of human […] cells assessed as cell growth at 10 uM after 48 hrs by SRB assay; details: read-out: Activity
# [20] = system: PC-3; assay: Growth inhibition of human PC3 cells after 48 hrs by […] growth inhibition assay; details: PC-3, 48 h
# [21] = system: M14; assay: Growth inhibition of human M14 cells assessed as cell growth at 100 uM after 48 hrs by SRB assay; details: M14, 48 h, read-out: Activity
# [22] = system: SNB-19; assay: Growth inhibition of human SNB19 cells after 48 hrs by […] growth inhibition assay; details: SNB-19, 48 h
# [23] = system: T47D; assay: Growth inhibition of human T47D cells assessed as cell growth at 1 uM after 48 hrs by SRB assay; details: read-out: Activity
# [24] = system: OVCAR-5; assay: Growth inhibition of human OVCAR5 cells assessed as cell growth at 0.1 uM after 48 hrs by SRB assay; details: OVCAR-5, 48 h, read-out: Activity
# [25] = system: CAKI-1; assay: Growth inhibition of human Caki1 cells assessed as cell growth at 100 uM after 48 hrs by SRB assay; details: CAKI-1, 48 h, read-out: Activity
# [26] = system: SK-MEL-5; assay: Growth inhibition of human SK-MEL-5 cells assessed as cell growth at 1 uM after 48 hrs by SRB assay; details: SK-MEL-5, 48 h, read-out: Activity
# [27] = system: MDA-MB-231; assay: Growth inhibition of human MDA-MB-231 cells assessed as cell growth at 100 uM after 48 hrs by SRB assay; details: MDA-MB-231, 48 h, read-out: Activity
# [28] = system: COLO 205; assay: Growth inhibition of human COLO205 cells assessed as cell growth at 0.1 uM after 48 hrs by SRB assay; details: COLO 205, 48 h, read-out: Activity
# [29] = system: SK-OV-3; assay: Growth inhibition of human SKOV3 cells assessed as cell growth at 100 uM after 48 hrs by SRB assay; details: SK-OV-3, 48 h, read-out: Activity
# [30] = system: SNB-19; assay: Growth inhibition of human SNB19 cells assessed as cell growth at 1 mM after 48 hrs by SRB assay; details: SNB-19, 48 h, read-out: Activity
# [31] = system: IGROV-1; assay: Growth inhibition of human IGROV1 cells after 48 hrs by […] growth inhibition assay; details: IGROV-1, 48 h
# [32] = system: HL-60(TB); assay: Growth inhibition of human HL-60(TB) cells assessed as cell growth at 10 uM after 48 hrs by SRB assay; details: HL-60, 48 h, read-out: Activity
# [33] = read-out: LC50 (the source's name)
# [34] = read-out: pLC50 (the source's name) (converted)
compound,measurement,setting,value
CNC(=O)NC[C@H]1O[C@@H](n2cnc3c(NC(=O)Nc4ccccc4)ncnc32)[C@H](O[Si](C)(C)C(C)(C)C)[C@@H]1O[Si](C)(C)C(C)(C)C,growth at 100 µM,[1],-28%
same,growth at 100 µM,[2],-74%
same,growth at 1000 µM,[3],-39%
same,growth at 1 µM,[4],98%
same,growth at 1 µM,[5],110%
same,GI50,[6]; read-out: GI50,3.78 µM
same,CC50,[6]; [33],> 100 µM
same,TGI,[6]; read-out: TGI,20.2 µM
same,GI50,[6]; read-out: pGI50 (converted),3.8 µM
same,CC50,[6]; [34],> 100 µM
same,TGI,[6]; read-out: pTGI (converted),20 µM
same,growth at 0.1 µM,[7],85%
same,growth at 0.1 µM,[8],103%
same,GI50,[9]; read-out: GI50,1.89 µM
same,CC50,[9]; [33],5.98 µM
same,TGI,[9]; read-out: TGI,3.36 µM
same,GI50,[9]; read-out: pGI50 (converted),1.91 µM
same,CC50,[9]; [34],6.03 µM
same,TGI,[9]; read-out: pTGI (converted),3.39 µM
same,growth at 1 µM,[10],107%
same,growth at 1000 µM,[11],6%
same,growth at 10 µM,[12],98%
same,growth at 10 µM,[13],103%
same,GI50,[14]; read-out: GI50,1.82 µM
same,CC50,[14]; [33],6.21 µM
same,TGI,[14]; read-out: TGI,3.36 µM
same,GI50,[14]; read-out: pGI50 (converted),1.82 µM
same,CC50,[14]; [34],6.17 µM
same,TGI,[14]; read-out: pTGI (converted),3.39 µM
same,growth at 100 µM,[15],-59%
same,growth at 1000 µM,[16],-53%
same,growth at 0.1 µM,[17],102%
same,growth at 1 µM,[18],113%
same,growth at 10 µM,[19],98%
same,GI50,[20]; read-out: GI50,2.69 µM
same,CC50,[20]; [33],> 100 µM
same,TGI,[20]; read-out: TGI,> 1 µM
same,GI50,[20]; read-out: pGI50 (converted),2.69 µM
same,CC50,[20]; [34],> 100 µM
same,TGI,[20]; read-out: pTGI (converted),> 100 µM
same,growth at 100 µM,[21],19%
same,GI50,[22]; read-out: GI50,4.57 µM
same,CC50,[22]; [33],> 100 µM
same,TGI,[22]; read-out: TGI,> 100 µM
same,GI50,[22]; read-out: pGI50 (converted),4.57 µM
same,CC50,[22]; [34],> 100 µM
same,TGI,[22]; read-out: pTGI,> 100 µM
same,growth at 1 µM,[23],105%
same,growth at 0.1 µM,[24],96%
same,growth at 100 µM,[25],-11%
same,growth at 1 µM,[26],98%
same,growth at 100 µM,[27],-29%
same,growth at 0.1 µM,[28],109%
same,growth at 100 µM,[29],39%
same,growth at 1000 µM,[30],7%
same,GI50,[31]; read-out: GI50,2.74 µM
same,CC50,[31]; [33],> 100 µM
same,TGI,[31]; read-out: TGI,7.76 µM
same,GI50,[31]; read-out: pGI50 (converted),2.75 µM
same,CC50,[31]; [34],> 100 µM
same,TGI,[31]; read-out: pTGI (converted),7.76 µM
CNC(=O)OC[C@H]1O[C@@H](n2cnc3c(NC(=O)Nc4ccccc4)ncnc32)[C@H](O[Si](C)(C)C(C)(C)C)[C@@H]1O[Si](C)(C)C(C)(C)C,growth at 10 µM,[12],111%
same,growth at 10 µM,[13],97.6%
same,growth at 10 µM,[19],88.1%
same,growth at 10 µM,[32],113%
